# Read-outs that look alike come from different tables or passages of the source. Where a SMILES comes first, the peptide text is derived from it. [ ]: non-standard residue; d: D form. The star is where a group is joined. Levofloxacinoyl = C[C@H]1COc2c(N3CCN(C)CC3)c(F)cc3c(=O)c(C(=O)*)cn1c23
# Columns and labels:
# [1] = test system: S. aureus (NCTC 13277); test: microbe, parasite or virus in culture; settings: Staphylococcus aureus, NCTC13277, read-out: MIC S. aureus (NCTC 13277)
# [2] = test system: human red blood cells (RBC); test: Hemolytic assay; assay type: cell-based; settings: 1 h
# Experimental: For the hemolytic assay, fresh human blood (2 mL) was obtained from a healthy donor in EDTA tube while following the protocol of approval from the Independent Ethics Committee of ICCBS (approval number ICCBS/IEC-047-HB-2019/Protocol/1.0). The blood was centrifuged and upper supernatant plasma was removed. The cell pellets were washed with sterile PBS three times. The washed blood cells were then diluted 25 times to make 4% concentration of the initial blood cells. Red blood cells (500 µL) were treated with increasing concentrations of analogs, with triton X-100 at 0.1% being used as positive control giving 100% hemolysis. After 1 h of incubation at 37 °C, tubes were centrifuged at 800 rpm for 5 min to pellet down red blood cells. After centrifugation, 200 µL of supernatant were transferred into a 96 well plate and the absorbance was recorded at 576 nm using a microplate reader (MultiSkan Go, ThermoScientific). Then, the following formula was applied to calculate percent hemolysis: % Hemolysis=O.D of test sample−O.D of PBS control/O.D of Tritox×positive control−O.D of PBS control×100
# [3] = test system: E. coli (ATCC 25922); test: Antibacterial broth microdilution MIC assay; assay type: cell-based, Escherichia coli; settings: >99% inhibition of growth, MH broth, 20-22 h, 37 °C
# Experimental: (§1) The antibacterial activity of peptide analogs was tested against different bacterial strains, i.e., Salmonella enterica subsp. enterica serotype Typhimurium or Salmonella typhi (ATCC 14028), Staphylococcus aureus (NCTC 13277), Bacillus subtilis (ATCC 23857), Escherichia coli (ATCC 25922), and Pseudomonas aeruginosa (ATCC 10145). These strains were obtained from the microbial bank of Dr. Panjwani Center for Molecular Medicine and Drug research (PCMD), International Center for Chemical and Biological Sciences (ICCBS), University of Karachi. Colonies of these bacterial strains were grown in respective agar media, then inoculated in Mueller Hinton (MH) broth (Oxoid, UK) and incubated at 37 °C overnight. The peptide solutions were first diluted 1 in 100 (from the stock solution at 20 mM) and then further two-fold dilution in MH broth in a sterile 96-well plate was performed, resulting in 100 µL of broth containing increasing concentrations of analogs. Bacteria in their exponential growth phase were diluted in MH broth, and 100 µL of this suspension was added in each well. […] Then, these plates were incubated at 37 °C for 20–22 h. MIC (Minimum Inhibitory Concentration) values were determined as the concentrations of peptides causing >99% inhibition of bacterial growth.
# [4] = test system: P. aeruginosa (ATCC 10145); test: Antibacterial broth microdilution MIC assay; assay type: cell-based, Pseudomonas aeruginosa; settings: >99% inhibition of growth, MH broth, 20-22 h, 37 °C
# Experimental: as §1
# [5] = test system: S. typhi (ATCC 14028); test: microbe, parasite or virus in culture; settings: Salmonella enterica, read-out: MIC S. typhi (ATCC 14028)
# [6] = test system: B. subtilis (ATCC 23857); test: Antibacterial broth microdilution MIC assay; assay type: cell-based, Bacillus subtilis; settings: >99% inhibition of growth, MH broth, 20-22 h, 37 °C
# Experimental: as §1
# [7] = test system: C. albicans (ATCC 36082); test: microbe, parasite or virus in culture
# Experimental: Candida albicans (ATCC 36082) was cultured on Sabourad Dextrose Agar (SDA). A single colony was inoculated in Sabouraud Dextrose Broth (SDB) medium and grown overnight at 37 °C while shaking. The next day, the susceptibility of C. albicans was tested using a broth microdilution assay. Peptide analogs were diluted in SDB media by two-fold dilution, resulting in 100 µL of medium containing increasing concentrations of analogs. The overnight culture (turbidity at OD600 = 1) was 1000× diluted in SDB. Then 100 µL of this suspension was added to each well, resulting in a final 200 µL suspension containing 2–4 × 10^5 CFU/mL. The plate was incubated at 37 °C for 24 h. The next day, MIC (Minimum Inhibitory Concentration) values were determined as the concentrations of peptides causing > 99% inhibition of yeast growth.
# [8] = test system: human cervical cancer (HeLa) cells; test: cells; assay type: cell-based
# Experimental: (§2) Human breast cancer (MCF-7) and human cervical cancer (HeLa) cells were obtained from the cell culture bank of PCMD in ICCBS, University of Karachi. These cells were maintained in Dulbecco’s Modified Eagle Medium (DMEM), supplemented with 10% fetal bovine serum, and incubated at 37 °C and 5% CO2. The antiproliferative activity of the samples was determined by a MTT assay. Briefly, the cells were washed with PBS and trypsinized. After determination of the cell number using Malassez cell counting, 100 µL of the cell suspension were seeded in a 96-well plate at the density of 6000 cells/well and incubated at 37 °C and 5% CO2. After 24 h, the cells were treated with increasing concentrations of analogs. The next day, media was removed and 200 µL of MTT dye (0.5 mg/mL) was added in each well and incubated for 3 h at 37 °C in 5% CO2 incubator. Then, the media was removed and 100 µL of DMSO was added to solubilize formazan crystals. After one minute of shaking, the absorbance was recorded at 540 nm in microplate reader (Multiskan GO, ThermoScientific, Waltham, MA, USA). Finally, the percent inhibition of proliferation was calculated using the following formula: % inhibition of proliferation=O.D of treated well−O.D of media control/O.D of untreated control−O.D of media control×100
# [9] = test system: Human breast cancer (MCF-7) cells; test: cells; assay type: cell-based
# Experimental: as §2
# [10] = test system: S. typhi (ATCC 14028)
# [11] = test system: human red blood cells (RBC); settings: previously reported; cited from earlier work
# [12] = test system: S. aureus (NCTC 13277); settings: >99% inhibition of growth, MH broth, 20-22 h, 37 °C
# [13] = test system: cancer cells (MCF-7, HeLa); design: species or system human
# Experimental: The selectivity of action of the analogs against micro-organisms or cancer cells was further evaluated through calculation of their selectivity indexes (SIs). SIs were determined using either the MIC on micro-organisms or IC50 on cancer cells compared to HC50 values, and they are reported in Table 6.
# [14] = test system: P. aeruginosa; test: Atomic force microscopy imaging of treated bacteria; assay type: cell-based, Pseudomonas aeruginosa; settings: 2XMIC, overnight, tapping mode
# Experimental: (§3) Different bacteria (S. typhi, E. coli, and P. aeruginosa) adjusted to 2–3 × 10^7 CFU/mL were treated with 2XMIC values of analogs and incubated overnight at 37 °C. The next day, the bacteria were washed, dispersed in sterile pure grade water, dispensed in poly-L-lysine-coated mica slides, and left for air drying. Changes in the morphology of the bacteria were studied with an atomic force microscope (Agilent 5500, Chandler, AZ, USA). The whole analysis was carried out in tapping mode. Images were collected and optimized at a scan velocity of 1–5 µm/s and 512 × 512-line resolution and processed through PicoView 1.2 imaging software.
# [15] = Circular dichroism secondary structure analysis (Bestsel) in 20 mM SDS; assay type: physicochemical; settings: CD, 15 µM peptide in 20 mM SDS, 22 °C
# Experimental: The far-ultraviolet circular dichroism (CD) spectra were recorded using a JASCO J-810 spectropolarimeter (Jasco, Tokyo, Japan), with measurements taken in a quartz cuvette with a 10 mm path length. The temperature was kept at 22 °C, and the instrument was calibrated with D-(+)-10-camphorsulfonic acid. Peptides were dissolved in 20 mM SDS to a final concentration of 15 µM. The CD spectra were collected over a wavelength range of 190 to 260 nm with a bandwidth of 2 nm. Each spectrum was recorded with ten consecutive scans at a rate of 50 nm/min, and the baseline was obtained under identical conditions. Secondary structures, i.e., the percentage of alpha-helix and other secondary structures, were quantified from CD data using Bestsel software (https://bestsel.elte.hu/index.php, accessed on 22 October 2024).
# [16] = test system: E. coli; test: Atomic force microscopy imaging of treated bacteria; assay type: cell-based, Escherichia coli; settings: 2XMIC, overnight, tapping mode
# Experimental: as §3
# [17] = MTT, 24 h exposure, read-out: IC50 on Cervical Cancer (HeLa)
compound,measurement,setting,value
"C[C@H]1COc2c(N3CCN(C)CC3)c(F)cc3c(=O)c(C(=O)O)cn1c23 [Levofloxacin, reference compound]",MIC,[1],25 µM
same,HC50 on Human Red Blood Cells (RBCs),[2]; human,>100 µM
same,MIC,"[3]; Escherichia coli, ATCC25922",0.78 µM
same,MIC,"[4]; Pseudomonas aeruginosa, ATCC10145",1.56 µM
same,MIC,[5],0.39 µM
same,MIC,"[6]; Bacillus subtilis, ATCC23857",0.39 µM
same,MIC,"[7]; Candida albicans, ATCC36082, 24 h, read-out: MIC C. albicans (ATCC 36082)",> 250 µM
same,IC50,"[8]; Homo sapiens, HeLa, MTT, 24 h exposure, read-out: IC50 on Cervical Cancer (HeLa)",> 100 µM
same,IC50,"[9]; Homo sapiens, MCF7, MTT, 24 h exposure, read-out: IC50 on Breast Cancer (MCF-7)",> 100 µM
"CC[C@H](C)[C@H](NC(=O)[C@@H](C)NC(=O)[C@H](CO)NC(=O)[C@H](CC(C)C)NC(=O)[C@@H](N)Cc1ccccc1)C(=O)N[C@H](C(=O)NCC(=O)N[C@@H](CCSC)C(=O)N[C@@H](CC(C)C)C(=O)NCC(=O)N[C@@H](CCCCN)C(=O)N[C@@H](CC(C)C)C(=O)N[C@@H](Cc1ccccc1)C(N)=O)C(C)C [NST-2 (1), H-Phe^1-Leu^2-Ser^3-D-Ala^4-Ile^5-Val^6-Gly^7-Met^8-Leu^9-Gly^10-Lys^11-Leu^12-Phe^13-NH2] (H-FLS[dA]IVGMLGKLF-NH2)",HC50 on Human Red Blood Cells (RBCs),"[2]; 37 °C, 0.1% triton X-100 = 100% hemolysis",90.0 µM
same,MIC,[3],125 µM
same,MIC S. typhi (ATCC 14028),[10]; ATCC 14028,250 µM
same,MIC,[4],>250 µM
same,MIC,[6],6.25 µM
same,MIC C. albicans (ATCC 36082),"[7]; >99% inhibition of yeast growth, SDB, 24 h, 37 °C",20 µM
same,hemolysis HC50,[11],90.0 µM
same,IC50,[8]; [17],> 100 µM
same,IC50,"[9]; lowest IC50 on cancer cells = MCF-7 (peptides 1, 2, 7), from Table 5, read-out: Lower IC50",17.9 µM
same,MIC S. aureus (NCTC 13277),[12],14.34 µM
"CC[C@H](C)[C@H](NC(=O)[C@@H](NC(=O)CNC(=O)[C@H](CCSC)NC(=O)[C@H](CC(C)C)NC(=O)CNC(=O)[C@H](CCCCNC(=O)c1cn2c3c(c(N4CCN(C)CC4)c(F)cc3c1=O)OC[C@@H]2C)NC(=O)[C@H](CC(C)C)NC(=O)[C@@H](N)Cc1ccccc1)C(C)C)C(=O)N[C@H](C)C(=O)N[C@@H](CO)C(=O)N[C@@H](CC(C)C)C(=O)N[C@@H](Cc1ccccc1)C(=O)N[C@@H](CCCCN)C(N)=O [RLFP-2 (5), H-Phe^1-Leu^2-Lys^3(LF)-Gly^4-Leu^5-Met^6-Gly^7-Val^8-Ile^9-D-Ala^10-Ser^11-Leu^12-Phe^13-Lys^14-NH2] (H-FLK(Levofloxacinoyl)GLMGVI[dA]SLFK-NH2)",HC50 on Human Red Blood Cells (RBCs),[2]; red cells of human,25.0 µM
same,MIC,[3],>200 µM
same,MIC S. typhi (ATCC 14028),[10]; ATCC 14028,200 µM
same,IC50,[13],> 100 µM
same,MIC,[4],>200 µM
same,MIC,[6],50 µM
same,MIC C. albicans (ATCC 36082),"[7]; ATCC 36082, 24 h",>250 µM
same,IC50,[8]; 24 h,> 100 µM
same,IC50,[9]; 24 h,> 100 µM
same,MIC S. aureus (NCTC 13277),[12],100 µM
"CC[C@H](C)[C@H](NC(=O)[C@@H](NC(=O)CNC(=O)[C@H](CCSC)NC(=O)[C@H](CC(C)C)NC(=O)CNC(=O)[C@H](CCCCN)NC(=O)[C@H](CC(C)C)NC(=O)[C@@H](N)Cc1ccccc1)C(C)C)C(=O)N[C@H](C)C(=O)N[C@@H](CO)C(=O)N[C@@H](CC(C)C)C(=O)N[C@@H](Cc1ccccc1)C(=O)N[C@@H](CCCCN)C(N)=O [RSP-1 (3), H-Phe^1-Leu^2-Lys^3-Gly^4-Leu^5-Met^6-Gly^7-Val^8-Ile^9-D-Ala^10-Ser^11-Leu^12-Phe^13-Lys^14-NH2] (H-FLKGLMGVI[dA]SLFK-NH2)",AFM morphology of P. aeruginosa after treatment,[14],significant damages to the bacteria
same,HC50 on Human Red Blood Cells (RBCs),[2]; red cells of human,51.0 µM
same,MIC,[3],25 µM
same,MIC S. typhi (ATCC 14028),"[10]; >99% inhibition of growth, MH broth, 20-22 h, 37 °C",50 µM
same,MIC,[4],50 µM
same,MIC,[6],1.56 µM
same,MIC C. albicans (ATCC 36082),"[7]; ATCC 36082, 24 h",15.6 µM
same,Antiparallel (%),[15],18.2%
same,Helix (%),[15],81.8%
same,Others (%),[15],0.00%
same,Parallel (%),[15],0.00%
same,Turn (%),[15],0.00%
same,AFM morphology of E. coli after treatment,[16],significant damages to the bacteria
same,IC50,[8]; [17],33.5 µM
same,IC50,[9]; 24 h,42.7 µM
same,MIC S. aureus (NCTC 13277),[12],6.25 µM
